The values below come from patent US20210395239A1 (Hoffmann-La Roche Inc., priority 2018, published 2021).

One series addresses T1, CYP3A4 (Homo sapiens, UniProt P08684).
T1 construct: tissue BD-Gentest 452117; host or cells: human liver microsomes
The series is described as follows: CYP inhibition assay in human liver microsome, CYP3A4. It counts as in vitro ADME. Conditions: substrate midazolam 5 μM, third value of 2C9/2D6/3A4; for inhibition at 5 min, 10 µM: human, human liver microsomes, probe midazolam 5 μM. The method, boiled down: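 Pooled human liver microsomes with a substrate for each CYP were incubated with compound at 37 °C after NADPH addition, for 5 min (CYP2D6: 10 min), then quenched with acetonitrile containing labelled metabolite standards. Metabolite/internal-standard peak area ratios were measured by RapidFire MS/MS. % inhibition was scaled between DMSO and standard-inhibitor controls.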
(Microsomes from liver hold many membrane-bound enzymes, among them those of drug oxidation.)

The target in another series is T2, hTLR9 (Homo sapiens, UniProt Q9NR96).
T2 sequence (Q9NR96 26-1032): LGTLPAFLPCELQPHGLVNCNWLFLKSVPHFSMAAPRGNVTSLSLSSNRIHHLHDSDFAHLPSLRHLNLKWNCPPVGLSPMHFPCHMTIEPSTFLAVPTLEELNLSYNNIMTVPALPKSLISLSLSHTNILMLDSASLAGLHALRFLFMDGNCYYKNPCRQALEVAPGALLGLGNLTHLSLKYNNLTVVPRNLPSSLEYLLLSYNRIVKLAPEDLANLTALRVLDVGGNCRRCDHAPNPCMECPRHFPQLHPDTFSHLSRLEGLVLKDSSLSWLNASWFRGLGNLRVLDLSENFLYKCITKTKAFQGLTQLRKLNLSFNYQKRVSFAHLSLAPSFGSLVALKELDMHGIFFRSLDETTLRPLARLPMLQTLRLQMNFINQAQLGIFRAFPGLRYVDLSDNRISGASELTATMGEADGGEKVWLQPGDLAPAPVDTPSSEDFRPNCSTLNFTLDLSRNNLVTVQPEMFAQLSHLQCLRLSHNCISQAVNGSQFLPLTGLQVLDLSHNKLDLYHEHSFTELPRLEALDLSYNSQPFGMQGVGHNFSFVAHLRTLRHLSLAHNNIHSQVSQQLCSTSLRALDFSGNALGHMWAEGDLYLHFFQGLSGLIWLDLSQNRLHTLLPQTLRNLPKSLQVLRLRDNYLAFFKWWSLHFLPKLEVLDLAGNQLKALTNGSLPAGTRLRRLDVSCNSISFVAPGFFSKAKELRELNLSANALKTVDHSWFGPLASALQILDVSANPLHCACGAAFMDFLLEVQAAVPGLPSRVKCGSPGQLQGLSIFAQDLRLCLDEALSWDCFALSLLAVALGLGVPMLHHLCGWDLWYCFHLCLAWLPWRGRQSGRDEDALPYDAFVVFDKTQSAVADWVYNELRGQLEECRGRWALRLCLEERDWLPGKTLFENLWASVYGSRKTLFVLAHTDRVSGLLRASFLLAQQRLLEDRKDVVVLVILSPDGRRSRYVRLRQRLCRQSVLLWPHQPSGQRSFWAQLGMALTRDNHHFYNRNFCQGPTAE
The series is described as follows: HEK293-Blue-hTLR-9 cells assay (SEAP reporter, ODN2006 stimulation). On the set-up: host or cells: HEK293 (HEK-Blue hTLR9). It is filed as cell-based. Conditions: HEK293-Blue-hTLR9 cells, ODN2006, 20 hrs; read-out: HEK/hTLR9 IC50. In short, it runs like this: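 Antagonism read as lowered SEAP reporter absorbance (620–655 nm, QUANTI-Blue, 2 h, 37 °C) in supernatants. Before that, ODN2006-stimulated HEK293-Blue cells stably expressing human TLR9 were exposed to compound dilutions at 1% final DMSO for 20 h at 37 °C.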

T1 sequence (P08684 whole entry): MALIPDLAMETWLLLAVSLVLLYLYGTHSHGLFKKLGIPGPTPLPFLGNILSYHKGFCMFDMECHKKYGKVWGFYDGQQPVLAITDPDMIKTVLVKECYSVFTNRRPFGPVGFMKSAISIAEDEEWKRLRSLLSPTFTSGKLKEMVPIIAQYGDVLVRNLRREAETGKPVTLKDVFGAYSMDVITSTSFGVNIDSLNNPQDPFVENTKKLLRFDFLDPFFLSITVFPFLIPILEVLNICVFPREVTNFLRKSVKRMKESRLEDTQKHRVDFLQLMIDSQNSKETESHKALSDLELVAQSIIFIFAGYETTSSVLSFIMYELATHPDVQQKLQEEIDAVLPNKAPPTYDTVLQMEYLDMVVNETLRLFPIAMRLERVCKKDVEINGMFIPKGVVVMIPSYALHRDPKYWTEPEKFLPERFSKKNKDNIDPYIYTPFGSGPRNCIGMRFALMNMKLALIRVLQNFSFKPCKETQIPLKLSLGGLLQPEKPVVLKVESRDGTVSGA

As usually defined, the inhibition is the change of the read-out against control, counted positive when it falls. Turning to `COC1CNC[C@H]1Nc1cccc(N2CCN(C[C@H]3CN(c4ccc(C#N)c5ncccc45)C[C@@H](C)O3)CC2)n1` (stereo in doubt) [Example 39, 5-[(2S,6R)-2-[[4-[6-[[(3R,4R)-4-methoxypyrrolidin-3-yl]amino]-2-pyridyl]piperazin-1-yl]methyl]-6-methyl-morpholin-4-yl]quinoline-8-carbonitrile], on CYP3A4, the inhibition at 5 min, 10 µM was 23.5%. On hTLR9, the IC50 worked out at 104 nM.

Turning to `C[C@@H]1CN(c2ccc(C#N)c3ncccc23)C[C@H](CN2CCN(c3nccc(N4CCNCC4)n3)CC2)O1` [Example 14, 5-[(2R,6S)-2-methyl-6-[[4-(4-piperazin-1-ylpyrimidin-2-yl)piperazin-1-yl]methyl]morpholin-4-yl]quinoline-8-carbonitrile], on CYP3A4, the inhibition at 5 min, 10 µM was -2%. For the same molecule, the IC50 on hTLR9 is 32 nM.

Turning to `C[C@@H]1CN(c2ccc(C#N)c3ncccc23)C[C@H](CN2CCN(c3cc(N4CCNCC4)ccn3)CC2)O1` [Example 9, 5-[(2R,6S)-2-methyl-6-[[4-(4-piperazin-1-yl-2-pyridyl)piperazin-1-yl]methyl]morpholin-4-yl]quinoline-8-carbonitrile], the inhibition at 5 min, 10 µM against CYP3A4 amounted to 7.5%. The IC50 on hTLR9 was 32 nM.

`C[C@@H]1CN(c2ccc(C#N)c3ncccc23)C[C@H](CN2CCC(C#N)(c3ccc(N4CCNCC4)cc3)CC2)O1` [Example 11, 5-[(2S,6R)-2-[[4-cyano-4-(4-piperazin-1-ylphenyl)-1-piperidyl]methyl]-6-methyl-morpholin-4-yl]quinoline-8-carbonitrile]: on CYP3A4, the inhibition at 5 min, 10 µM amounted to 11%. In addition, the IC50 at hTLR9 is 92 nM.

Regarding `C[C@@H]1CN(c2ccc(C#N)c3ncccc23)C[C@H](CN2CCN(c3ccnc(N4CCN[C@@H](CO)C4)n3)CC2)O1` [Example 29, 5-[(2S,6R)-2-[[4-[2-[(3R)-3-(hydroxymethyl)piperazin-1-yl]pyrimidin-4-yl]piperazin-1-yl]methyl]-6-methyl-morpholin-4-yl]quinoline-8-carbonitrile], the inhibition at 5 min, 10 µM at CYP3A4 was -5.5%. Further, the IC50 at hTLR9 stood at 51 nM.

For the molecule `C[C@@H]1CN(c2ccc(C#N)c3ncccc23)C[C@H](CN2CCN(c3ccnc(N[C@H]4CNC[C@H]4F)n3)CC2)O1` [Example 24, 5-[(2S,6R)-2-[[4-[2-[[(3S,4R)-4-fluoropyrrolidin-3-yl]amino]pyrimidin-4-yl]piperazin-1-yl]methyl]-6-methyl-morpholin-4-yl]quinoline-8-carbonitrile], the inhibition at 5 min, 10 µM at CYP3A4 was 4%. Besides, the IC50 at hTLR9 is 32 nM.

For the molecule `C[C@@H]1CN(c2ccc(C#N)n3ncc(F)c23)C[C@H](CN2CCN(c3ccc(N4CC5(CN(C)C5)C4)nc3)CC2)O1` [Example 170, 3-fluoro-4-[(2R,6S)-2-methyl-6-[[4-[6-(6-methyl-2,6-diazaspiro[3.3]heptan-2-yl)-3-pyridyl]piperazin-1-yl]methyl]morpholin-4-yl]pyrazolo[1,5-a]pyridine-7-carbonitrile], at CYP3A4, the inhibition at 5 min, 10 µM was -7%. Also, on hTLR9, the IC50 stood at 70 nM.

On to `C[C@@H]1CN(c2ccc(C#N)c3ncccc23)C[C@H](CN2CCN(c3ccnc(N4CCN(C)CC4)n3)CC2)O1` [Example 22, 5-((2R,6S)-2-methyl-6-((4-(2-(4-methylpiperazin-1-yl)pyrimidin-4-yl)piperazin-1-yl)methyl)morpholino)quinoline-8-carbonitrile], for which, on CYP3A4, the inhibition at 5 min, 10 µM is -16%. Moreover, the IC50 at hTLR9 is 45 nM.

Consider `C[C@@H]1CN(c2ccc(C#N)n3ncc(F)c23)C[C@H](CN2CCN(c3ccc(N4C[C@H]5NCCO[C@@H]5C4)nc3)CC2)O1` [Example 168, 4-[(2S,6R)-2-[[4-[6-[(4aR,7aR)-3,4,4a,5,7,7a-hexahydro-2H-pyrrolo[3,4-b][1,4]oxazin-6-yl]-3-pyridyl]piperazin-1-yl]methyl]-6-methyl-morpholin-4-yl]-3-fluoro-pyrazolo[1,5-a]pyridine-7-carbonitrile], for which the inhibition at 5 min, 10 µM against CYP3A4 came to 11%. Further, on hTLR9, the IC50 was found to be 116 nM.

In the case of `C[C@@H]1CN(c2ccc(C#N)c3ncccc23)C[C@H](CN2CCN(c3cccc(NC4CNC4)n3)CC2)O1` [Example 38], the inhibition at 5 min, 10 µM against CYP3A4 is 20%. The IC50 on hTLR9 turned out to be 97 nM.

In the case of `C[C@@H]1CN(c2ccc(C#N)c3ncccc23)C[C@H](CN2CCN(c3cncc(N4CCNCC4)c3)CC2)O1` [Example 7, 5-[(2R,6S)-2-methyl-6-[[4-(5-piperazin-1-yl-3-pyridyl)piperazin-1-yl]methyl]morpholin-4-yl]quinoline-8-carbonitrile], at CYP3A4, the inhibition at 5 min, 10 µM was 15.5%. Besides, on hTLR9, the IC50 stood at 51 nM.

Take `C[C@@H]1CN(c2ccc(C#N)n3ncc(F)c23)C[C@H](CN2CCN(c3ccc(N[C@H]4CNC[C@H]4F)nc3)CC2)O1` [Example 167, 3-fluoro-4-[(2S,6R)-2-[[4-[6-[[(3S,4R)-4-fluoropyrrolidin-3-yl]amino]-3-pyridyl]piperazin-1-yl]methyl]-6-methyl-morpholin-4-yl]pyrazolo[1,5-a]pyridine-7-carbonitrile]: the inhibition at 5 min, 10 µM on CYP3A4 is 44%. Moreover, the IC50 at hTLR9 came out at 46 nM.

Regarding `C[C@@H]1CN(c2ccc(C#N)c3ncccc23)C[C@H](CN2CCN(c3nc(N4CCNCC4)ncc3F)CC2)O1` [Example 45, 5-[(2S,6R)-2-[[4-(5-fluoro-2-piperazin-1-yl-pyrimidin-4-yl)piperazin-1-yl]methyl]-6-methyl-morpholin-4-yl]quinoline-8-carbonitrile], the inhibition at 5 min, 10 µM at CYP3A4 is -5%. The IC50 at hTLR9 is 188 nM.

Take `C[C@@H]1CN(c2ccc(C#N)c3ncccc23)C[C@H](CN2CCN(c3ccnc(N4CCNCC4)n3)CC2)O1` [Example 15, 5-[(2R,6S)-2-methyl-6-[[4-(2-piperazin-1-ylpyrimidin-4-yl)piperazin-1-yl]methyl]morpholin-4-yl]quinoline-8-carbonitrile]: the inhibition at 5 min, 10 µM at CYP3A4 was 11.5%. The IC50 at hTLR9 came to 36 nM.

As to `C[C@@H]1CN(c2ccc(C#N)c3ncccc23)C[C@H](CN2CCN(c3ccc(N4CCNCC4)cn3)CC2)O1` [Example 8, 5-[(2R,6S)-2-methyl-6-[[4-(5-piperazin-1-yl-2-pyridyl)piperazin-1-yl]methyl]morpholin-4-yl]quinoline-8-carbonitrile], at CYP3A4, the inhibition at 5 min, 10 µM was -3.5%. At hTLR9, the IC50 was 93 nM.

For `COC1CN(c2nccc(N3CCN(C[C@H]4CN(c5ccc(C#N)c6ncccc56)C[C@@H](C)O4)CC3)n2)C[C@H]1N` (stereo in doubt) [Example 52, 5-[(2S,6R)-2-[[4-[2-[(3R,4R)-3-amino-4-methoxy-pyrrolidin-1-yl]pyrimidin-4-yl]piperazin-1-yl]methyl]-6-methyl-morpholin-4-yl]quinoline-8-carbonitrile], the “CYP (%) 3A4 inhibition” value at CYP3A4 is 2%. The IC50 at hTLR9 was determined as 32 nM.

Consider `C[C@@H]1CN(c2ccc(C#N)c3ncccc23)C[C@H](CN2CCN(c3ccc([C@@H]4CNCCO4)cc3)CC2)O1` [Example 19, 5-[(2R,6S)-2-methyl-6-[[4-[4-[(2R)-morpholin-2-yl]phenyl]piperazin-1-yl]methyl]morpholin-4-yl]quinoline-8-carbonitrile], for which, at CYP3A4, the inhibition at 5 min, 10 µM worked out at 12.5%. Also, on hTLR9, the IC50 was 91 nM.
